Results as given in ChEMBL document CHEMBL1201862, “PubChem BioAssay data set” (2004).
Calls of active or inactive are those of the source. Unless noted, no cut-off for these calls is given here.

How the values were obtained:
Bcl-2-like protein 10 = biological target: T1, Bcl-2-like protein 10 (Homo sapiens, UniProt Q9HD36); experiment: Concentration-response of Bcl-B inhibitors by biochemical FP with TR3 (AID 1243); assay type: functional
T1 sequence (Q9HD36 whole entry): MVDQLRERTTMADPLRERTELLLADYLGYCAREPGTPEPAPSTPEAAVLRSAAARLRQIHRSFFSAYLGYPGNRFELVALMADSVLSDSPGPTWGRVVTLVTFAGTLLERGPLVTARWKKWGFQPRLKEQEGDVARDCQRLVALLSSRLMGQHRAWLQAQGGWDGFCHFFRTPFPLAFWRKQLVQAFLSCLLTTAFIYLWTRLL

Ephrin type-A receptor 4 = Ephrin type-A receptor 4 (Mus musculus, UniProt Q03137); experiment: EphA4 ligand-binding antagonists – biochemical, colorimetric, mouse EphA4, primary screen (AID 689); assay type: functional
[1] = biological target: Muscarinic acetylcholine receptor M1 (Rattus norvegicus, UniProt P08482); experiment: concentration-dependent potentiation of ACh at M1 – cell-based, calcium mobilization, CHO-K1, ACh EC20, dose response (AID 2425); assay type: functional
[2] = decrease of insulin promoter-GFP reporter – imaging, high-content screening, mouse beta cells (AID 1628); assay type: functional; conditions: MIN6
[3] = loss of viability in HepG2 cells – cell-based, CellTiter-Glo, cherry-picked, cytotoxicity control for Shn3 inhibitor project, dose response (AID 624134); assay type: functional
[4] = tested on: Streptococcus sp. 'group A'; experiment: Streptococcus pyogenes SK(-)GAS viability under kanamycin – luminescence, BacTiterGlo, confirmation, counter-screen for streptokinase expression inhibitor project, dose response (AID 1900); assay type: functional, organism-based
[5] = reduction of Shn3 3'UTR-driven luciferase in osteoblasts – cell-based, Clone20 osteoblasts, firefly luciferase, cherry-picked, dose response (AID 624132); assay type: functional;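 note: firefly luciferase luminescence from reporter carrying the Shn3 3'UTR in osteoblasts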
[6] = Trypanosoma cruzi growth suppression in host cells – NIH3T3 host cells, beta-gal luminescence, confirmation (AID 2044); assay type: functional, cell-based;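 note: intracellular parasites grown in NIH/3T3 mouse fibroblasts as host cells; luminescent beta-galactosidase reporter signal from transgenic T. cruzi replicating inside host cells; inhibitors lower the luminescence signal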
Galanin receptor type 2 = biological target: T2, Galanin receptor type 2 (Homo sapiens, UniProt O43603); experiment: Dose Response cell-based high-throughput screening assay to identify agonists of galanin receptor 2 (GALR2). [Related pubchem assays: 864 ]; assay type: functional
T2 sequence (O43603 whole entry): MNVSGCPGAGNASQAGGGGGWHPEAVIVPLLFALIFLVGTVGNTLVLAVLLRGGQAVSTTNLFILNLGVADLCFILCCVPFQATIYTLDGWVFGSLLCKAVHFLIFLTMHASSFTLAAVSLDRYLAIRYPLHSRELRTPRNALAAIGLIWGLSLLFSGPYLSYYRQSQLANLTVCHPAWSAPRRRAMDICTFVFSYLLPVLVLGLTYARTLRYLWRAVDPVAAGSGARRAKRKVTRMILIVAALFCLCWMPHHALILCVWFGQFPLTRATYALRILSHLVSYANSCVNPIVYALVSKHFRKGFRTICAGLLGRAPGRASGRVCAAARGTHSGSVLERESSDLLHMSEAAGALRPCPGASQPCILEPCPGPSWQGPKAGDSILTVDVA

[7] = NIH3T3 cell viability loss – ATP luminescence, mouse fibroblasts, counter-screen, dose response (AID 2010); assay type: functional, cell-based;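 note: cells exposed to compound for about 90 hours before reading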
[8] = non-specific 3'UTR reporter inhibition in Clone20-Shn3RL – cell-based, Renilla luciferase, cherry-picked, counter-screen for Shn3 inhibitor project, dose response (AID 624133); assay type: functional
INS1 = experiment: INS-1E survival protection against cytokine death – cell-based, luminescence, retest, dose response (AID 449756); assay type: functional; conditions: Rattus norvegicus;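 note: cell death triggered by IL-1 beta plus TNF-alpha plus IFN-gamma mixture; protective hits raise ATP signal compared with cytokine alone wells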
Streptococcus [9] = experiment: GAS UMAA2166 growth inhibition – luminescence, BacTiterGlo, counter-screen for streptokinase expression inhibitor project, dose response (AID 1915); assay type: functional, organism-based;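 note: potency for reduction of bacterial viability or growth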
[10] = MIN6 cell viability loss – mouse insulinoma, cytotoxicity control, dose response (AID 2122); assay type: functional;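 note: confirmatory high-throughput counterscreen run to flag cytotoxic compounds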
[11] = biological target: Inward rectifier potassium channel 2 (Mus musculus, UniProt P35561); experiment: Manual electrophysiological patch clamp assay for SAR compounds that inhibit/block inward-rectifying potassium ion channel Kir2.1. [Related pubchem assays: 1843 (Summary assay for Kir2.1 inhibitor assays.), 1672 (Primary HTS of 305616 compounds where 2592 were identified as active.)]; assay type: functional
[12] = mitochondrial function rescue without frataxin homolog – Friedreich's ataxia, plus single-dose screen, dose response (AID 1465); assay type: functional;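 note: yeast depleted of Yfh1p frataxin homolog grown on glycerol needing respiration; WST-1 tetrazolium dye reduction as measure of cellular dehydrogenase metabolic activity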
Streptokinase A = biological target: T3, Streptokinase A (Streptococcus pyogenes serotype M1, UniProt P10520); experiment: Absorbance Microorganism-Based Dose Response Follow up to Identify Inhibitors of Streptokinase Expression. [Related pubchem assays: 1677 (Project Summary), 1915, 1914, 1902 (Retest at Dose), 1900 (Counter Screen), 1662 (Primary HTS)]; assay type: functional, Streptococcus pyogenes M1 GAS
T3 sequence (P10520 whole entry): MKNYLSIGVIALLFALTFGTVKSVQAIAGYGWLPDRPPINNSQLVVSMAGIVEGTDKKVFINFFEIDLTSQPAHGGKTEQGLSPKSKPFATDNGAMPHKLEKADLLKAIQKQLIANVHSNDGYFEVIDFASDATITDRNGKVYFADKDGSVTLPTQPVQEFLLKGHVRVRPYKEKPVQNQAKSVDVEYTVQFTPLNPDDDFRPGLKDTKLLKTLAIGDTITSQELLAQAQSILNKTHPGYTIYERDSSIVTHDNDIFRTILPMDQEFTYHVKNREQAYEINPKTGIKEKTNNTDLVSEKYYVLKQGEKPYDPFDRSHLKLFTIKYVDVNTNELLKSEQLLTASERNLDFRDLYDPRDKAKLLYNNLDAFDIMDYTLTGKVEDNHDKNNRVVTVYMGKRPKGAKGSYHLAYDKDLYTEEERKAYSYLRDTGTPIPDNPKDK

Streptococcus [13] = experiment: GAS bacterial viability reduction – luminescence, BacTiter-Glo, strain UMAA2166, counter-screen for streptokinase expression inhibitor project, dose response (AID 2477); assay type: functional, organism-based

Sequence of Inward rectifier potassium channel 2 (P35561 whole entry): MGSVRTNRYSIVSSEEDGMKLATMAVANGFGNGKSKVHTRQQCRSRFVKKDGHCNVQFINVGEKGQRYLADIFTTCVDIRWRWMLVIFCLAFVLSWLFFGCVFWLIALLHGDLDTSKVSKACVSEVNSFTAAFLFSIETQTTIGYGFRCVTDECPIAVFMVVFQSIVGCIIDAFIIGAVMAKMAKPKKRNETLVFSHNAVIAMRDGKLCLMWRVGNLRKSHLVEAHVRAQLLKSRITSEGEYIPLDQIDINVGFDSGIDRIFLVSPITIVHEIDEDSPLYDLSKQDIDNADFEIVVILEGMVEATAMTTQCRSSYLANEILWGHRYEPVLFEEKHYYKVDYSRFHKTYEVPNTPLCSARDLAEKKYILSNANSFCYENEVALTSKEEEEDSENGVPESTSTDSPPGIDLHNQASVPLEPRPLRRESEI
Sequence of Muscarinic acetylcholine receptor M1 (P08482 whole entry): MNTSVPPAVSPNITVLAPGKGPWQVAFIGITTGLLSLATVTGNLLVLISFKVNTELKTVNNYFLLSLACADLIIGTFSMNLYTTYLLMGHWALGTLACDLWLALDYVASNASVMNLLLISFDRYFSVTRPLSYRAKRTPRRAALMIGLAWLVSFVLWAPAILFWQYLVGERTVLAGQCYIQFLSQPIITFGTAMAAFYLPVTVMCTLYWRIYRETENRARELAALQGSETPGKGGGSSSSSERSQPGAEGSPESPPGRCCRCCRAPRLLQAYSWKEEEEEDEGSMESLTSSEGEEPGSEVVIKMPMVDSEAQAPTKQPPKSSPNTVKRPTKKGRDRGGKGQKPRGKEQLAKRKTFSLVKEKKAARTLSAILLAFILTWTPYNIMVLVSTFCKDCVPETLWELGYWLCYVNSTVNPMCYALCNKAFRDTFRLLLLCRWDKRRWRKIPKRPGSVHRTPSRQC
Sequence of Ephrin type-A receptor 4 (Q03137 whole entry): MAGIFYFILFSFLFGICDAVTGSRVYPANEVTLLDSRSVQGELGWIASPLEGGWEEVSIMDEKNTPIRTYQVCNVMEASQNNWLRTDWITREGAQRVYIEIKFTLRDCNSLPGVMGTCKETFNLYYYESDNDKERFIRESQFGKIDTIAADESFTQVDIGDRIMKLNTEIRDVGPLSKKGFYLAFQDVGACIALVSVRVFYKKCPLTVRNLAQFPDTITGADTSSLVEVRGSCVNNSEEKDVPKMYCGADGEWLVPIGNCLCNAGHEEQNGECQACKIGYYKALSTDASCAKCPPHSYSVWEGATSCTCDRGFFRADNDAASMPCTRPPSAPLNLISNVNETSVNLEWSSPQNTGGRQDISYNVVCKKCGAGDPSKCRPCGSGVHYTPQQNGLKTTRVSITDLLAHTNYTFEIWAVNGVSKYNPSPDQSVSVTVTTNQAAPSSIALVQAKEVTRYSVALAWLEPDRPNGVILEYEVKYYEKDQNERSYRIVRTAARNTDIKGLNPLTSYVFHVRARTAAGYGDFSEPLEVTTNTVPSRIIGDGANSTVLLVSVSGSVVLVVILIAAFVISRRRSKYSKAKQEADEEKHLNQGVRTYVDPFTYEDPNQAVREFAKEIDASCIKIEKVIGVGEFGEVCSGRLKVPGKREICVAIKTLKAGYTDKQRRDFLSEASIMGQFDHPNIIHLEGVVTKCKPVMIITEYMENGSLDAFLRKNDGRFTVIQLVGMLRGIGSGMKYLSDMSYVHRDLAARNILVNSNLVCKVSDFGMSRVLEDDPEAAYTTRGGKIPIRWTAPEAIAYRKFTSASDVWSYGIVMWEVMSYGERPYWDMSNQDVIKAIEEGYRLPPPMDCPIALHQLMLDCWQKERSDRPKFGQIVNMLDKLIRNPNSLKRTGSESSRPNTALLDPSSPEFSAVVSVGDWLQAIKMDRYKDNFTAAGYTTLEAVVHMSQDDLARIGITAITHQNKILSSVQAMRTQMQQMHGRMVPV

Cc1ccc2oc3cc(NCCCN(C)C)c4c(=O)c5ccccc5c(=O)c4c3[nH]c2c1
EC50 (Bcl-2-like protein 10): 0.67 µM (active)

CCCCN(CCCC)c1nc2ccccc2nc1/C(C#N)=C(/O)OCC
IC50 (Ephrin type-A receptor 4): 5.65 µM (active)

Cc1cc(NC(=O)CS(=O)(=O)c2cn(Cc3cc(Br)ccc3F)c3ccccc23)no1
EC50 [1]: 1.42 µM (active)

Cc1cc(C)c2nc(NNC(=O)c3ccc(S(=O)(=O)N4CC(C)CC(C)C4)cc3)sc2c1 (stereo not drawn)
IC50 [2]: 4.16 µM (active)
AC50 [3]: 7.56 µM (active)
EC50 [4]: 0.697 µM (active)
AC50 [5]: 2.28 µM (active)
EC50 [6]: 1.35 µM (active)
EC50 (Galanin receptor type 2): > 55.7 µM (not active)
EC50 [7]: 3.39 µM (active)
AC50 [8]: 2.1 µM (active)
AC50 (INS1): 1.96 µM (active)
EC50 (Streptococcus [9]): 2.55 µM (active)
IC50 [10]: 3.68 µM (active)

COc1ccc(CNCc2cccc(Cl)c2)cc1
IC50 [11]: 1.12 µM (active)

COc1ccc(C2(c3ccc(O)cc3O)CC(c3ccccc3Cl)N=C(S)N2)cc1 (stereo not drawn)
EC50 [12]: > 100 µM (active)

COc1ccc(-c2nc(OC)c3ccccc3n2)cc1
EC50 (Streptokinase A): 63.2 µM (active)
EC50 (Streptococcus [13]): > 500 µM (not active)
